Results taken from publication PMC10892429, “Design, Synthesis, and Antitumor Evaluation of an Opioid Growth Factor Bioconjugate Targeting Pancreatic Ductal Adenocarcinoma” (Pharmaceutics, 2024).

Tests used:
[1] = tested on: HEK-293 human embryonic kidney cells; test: MTT viability assay, HEK-293
Procedure: (§1) The MIA PaCa-2 and AsPC-1 pancreatic cancer cell lines were obtained from the American Type Culture Collection (ATCC; Manassas, VA, USA). MIA PaCa-2, a human pancreatic cancer cell line, was isolated from the pancreatic duct (ATCC, CRL-1420) and cultured in Dulbecco’s Modified Eagle’s Medium (DMEM), supplemented with 10% FBS, 2.5% horse serum, and 1% penicillin/streptomycin (P/S). AsPC-1, a human metastatic pancreatic tumor cell line (ATCC, CRL-1682), was cultured in Roswell Park Memorial Institute 1640 Medium, supplemented with 10% FBS and 1% P/S. HDFa, a human primary dermal fibroblast was obtained from the American Type Culture Collection (ATCC; Manassas, VA, USA). The HDFa was cultured in DMEM and supplemented with 10% FBS and 1% P/S. HEK-293 immortalized human embryonic kidney was obtained courtesy of Professor Ewa Augustin from the Gdansk University of Technology. The HEK-293 was cultured in DMEM, and supplemented with 10% FBS and 1% P/S. Cells were cultured at 37 °C in a humidified atmosphere with 5% CO2. The cells were maintained in a 75 cm^2 tissue culture flask. The medium was replaced every two days. […]
(§2) In a 96-well plate, 7 × 10^3 MIA PaCa-2 and AsPC-1 cells and 3 × 10^3 HEK-293 and 10^4 HDFa cells were seeded per well. […] Cell viability was assessed using the MTT assay. […]

washed platelets [2] = test: LDH release assay on washed platelets; assay type: cell-based, human; conditions: 50 and 100 μM, 15 min at 37 °C, fluorescence
Procedure: The isolated WP (prepared as described in Section 2.12) were transferred to a 96-well plate for fluorescence measurements. Next, the OGF-Gm conjugate and the OGF at 50 and 100 μM concentrations were added. The control sample consisted of platelets suspended in Tyrod buffer. The positive control was WP treated with lysis buffer (0.1% Triton X-100) and the lysis buffered-WPs were set to 100%. Platelets with tested compounds were incubated for 15 min at 37 °C. Then, 100 μL of the LDH assay was added to each well and incubated for another 10 min, protected from light. The reaction was stopped with a Stop Solution buffer. Fluorescence intensity was measured with a plate reader (λex 560 nm; λem 590 nm). The results were expressed as the percentage of the total LDH release.

[3] = tested on: HDFa human primary dermal fibroblasts; test: MTT viability assay, HDFa
Procedure: as §1, §2

washed platelets [4] = test: Platelet aggregation by compounds alone, light aggregometry; conditions: tested concentration
[5] = tested on: AsPC-1 metastatic pancreatic cancer cells; test: MTT cytotoxicity assay, AsPC-1; assay type: cell-based, human; conditions: AsPC-1, 72 h
Procedure: The medium was replaced every two days.
Cell viability was assessed using the MTT assay.

[6] = Stability in DMEM supplemented with 10% FBS; assay type: in vitro ADME; conditions: DMEM + 10% FBS
Procedure: The OGF-Gem conjugate and OGF alone were incubated in a medium (DMEM) supplemented with 10% FBS at a temperature of 37 °C. The initial concentrations of the peptide and conjugate solutions were both 0.5 mM. Samples of 60 μL were taken immediately after the start of incubation, 30 min, 90 min, 180 min, and 23 h and mixed with 60 μL of acetonitrile to separate the proteins. The formed precipitate was removed via centrifugation for 15 min at 13,000 rpm. The supernatant was analyzed via RP-HPLC [(Shimadzu Prominence, Duisburg, Germany) linear gradient 10–90% phase B, 20 min., column Kinetex 5 μm XB-C18 100Å 150 × 4.6 mm] and MALDI-MS (Autoflex maX MALDI-TOF spectrometer, Bruker Daltonics, Bremen, Germany) using a 2,5-dihydroxybenzoic acid matrix (DHB). A stability analysis was performed according to a protocol previously described by us.

MIA PaCa-2 cells = test: Cell senescence (flow cytometry and optical microscopy), MIA PaCa-2; assay type: cell-based, human; conditions: MIA PaCa-2, 72 h; OGF-Gem increasing concentrations (3.125–100 nM), OGF 100 nM, Gem 100 nM
Procedure: In a 6-well plate, 1.7 × 10^5 MIA PaCa-2 and AsPC-1 cells were seeded per well. […] After incubation, the floating and attached cells were collected using a 1% BSA solution and fixed with 2% paraformaldehyde in PBS for 10 min at room temperature. The cells were washed with 1% BSA solution and incubated with the Senescence Detection Kit for 1.5 h at 37 °C without CO2, protected from light. Next, cell senescence was measured via flow cytometry (λex 490 nm; λem 514 nm). Ten thousand events were measured per sample. The data were expressed as a percentage of untreated cells (set to 100%), which were the control.
In a 12-well plate, 10^5 PaCa-2 and AsPC-1 cells were seeded per well. […] The medium was removed from each well and washed with a PBS (pH 7.2) buffer. The cells were incubated with fixative solution (0.2% glutaraldehyde, 2% paraformaldehyde, and a PBS buffer) for 5 min at room temperature. The cells were washed with a PBS (pH 6.0) buffer. Next, the cells were incubated with a staining solution (1 mg/mL X-Gal/DMF, 5 mM K3Fe(CN)6, 5 mM K4Fe(CN)6, 2 mM MgCl2, 150 mM NaCl, and 40 mM citric acid/buffer Na2HPO4) for 16 h at 37 °C, without CO2. After incubation, the cells were observed using an optical microscope (magnification 20x).

[7] = tested on: AsPC-1-induced platelet aggregation (washed platelets); test: Tumor cell-induced platelet aggregation (TCIPA), light aggregometry and TEM; assay type: cell-based, human; conditions: 50, 100 μM (any tested concentration), 10 min pre-incubation with washed platelets, AsPC-1 2 × 10^5/mL
Procedure: The MIA PaCa-2 and AsPC-1 cell cultures were washed and detached with 7 mM EDTA buffer. Next, the buffer was aspirated, and cells were centrifuged for 5 min at 1200 rpm and resuspended in Tyrod buffer. For TCIPA determination, MIA PaCa-2 cells were prepared at different concentrations: 10^5, 2 × 10^5, 5 × 10^5, 10^6 cells/mL; and AsPC-1 cells at concentrations of 5 × 10^4, 10^5, 2 × 10^5 cells/mL [31, 32, 33].
Samples collected after the TCIPA determination using the light aggregometer were fixed in 2.5% glutaraldehyde. The samples were then stained with 1% OsO4, gradually dehydrated with ethanol solution (30–100%), and embedded in EPON solution. Slides were prepared using a Leica UC7 ultramicrotome and stained with Uranyless and Reynolds lead citrate. Preparations were analyzed using a Tecnai G2 Spirit BioTWIN TEM [31].

[8] = all tested concentrations (1.56–100 nM), 3 days

Structure (SMILES)	cytotoxicity to HEK-293 [1, 8]	LDH release from platelets (washed platelets [2])	cytotoxicity to HDFa [3, 8]	effect on platelet aggregation (compound alone) (washed platelets [4])	cytotoxic effect compared to the commonly used chemotherapeutic agent (Gem) [5]	presence of intact compound after 23 h (MS) ([6]; 37 °C, 0.5 mM, 23 h, MALDI-MS)	presence of intact compound after 23 h (HPLC) ([6]; 37 °C, 0.5 mM, 23 h, RP-HPLC)	presence of intact compound after 3 days (HPLC) ([6]; 3 days at room temperature, RP-HPLC)	release of parent drug during incubation ([6]; HPLC and MS)	remaining at 23 h, 0.5 mM ([6]; DMEM supplemented with 10% FBS, 37 °C, 0.5 mM, 23 h, RP-HPLC, read-out: HPLC peak area of intact conjugate after 23 h relative to area just after start of incubation) [%]	induction of cell senescence (MIA PaCa-2 cells)	reduction in HEK-293 cell viability ([1]; 100 nM, 72 h, compared to the 100 nM OGF-Gem derivative) [%]	HDFa cell viability ([3]; 100 nM, 72 h, % of control) [%]	inhibition of TCIPA [7]	concentration after 23 h compared to the initial state ([6]; 37 °C, 0.5 mM, 23 h, RP-HPLC)
CSCC[C@H](NC(=O)[C@H](Cc1ccccc1)NC(=O)CNC(=O)CNC(=O)[C@H](Cc1ccc(O)cc1)NC(=O)CCC(=O)OC[C@H]1O[C@@H](n2ccc(N)nc2=O)C(F)(F)[C@@H]1O)C(=O)O [OGF-Gem]	slight cytotoxicity effect	did not result in significant releases of LDH	slight cytotoxicity effect	do not affect platelet aggregation	more pronounced cytotoxic effect	not confirmed	confirmed	confirmed	gradual release of free Gem	~39	–	–	–	–	–
Nc1ccn([C@@H]2O[C@H](CO)[C@@H](O)C2(F)F)c(=O)n1 [Gem, gemcitabine]	–	–	–	do not affect platelet aggregation	–	–	–	–	–	–	induced	80	35	did not inhibit	–
CSCC[C@H](NC(=O)[C@H](Cc1ccccc1)NC(=O)CNC(=O)CNC(=O)[C@@H](N)Cc1ccc(O)cc1)C(=O)O [OGF, [Met^5]-enkephalin, reference compound]	–	did not result in significant releases of LDH	–	do not affect platelet aggregation	–	–	still present	–	–	–	–	–	–	–	lower
